Results on 33 compounds are retold here after US20080032978A1, “SOLUBLE EPOXIDE HYDROLASE INHIBITORS” (Arete Therapeutics, Inc., priority 2006, published 2008).

Molecules are shown by their SMILES.

The test system of series [1] is soluble epoxide hydrolase (sEH). The series can be described thus: Fluorescent assay for mouse and human soluble epoxide hydrolase (CMNPC substrate). The format is biochemical. The source says:
Fluorescent Assay for Mouse and Human Soluble Epoxide Hydrolase Recombinant mouse sEH (MsEH) and human sEH (HsEH) were produced in a baculovirus expression system as previously reported. Grant et al., J. Biol. Chem., 268:17628-17633 (1993); Beetham et al., Arch. Biochem. Biophys., 305:197-201 (1993). The expressed proteins were purified from cell lysate by affinity chromatography. Wixtrom et al., Anal. […] Protein concentration was quantified using the Pierce BCA assay using bovine serum albumin as the calibrating standard. […] Solutions: Bis/Tris HCl 25 mM 7.0 containing 0.1 mg/mL of BSA (buffer […] at 0.25 mM in DMSO. Mother solution of enzyme in buffer A (Mouse sEH at 6 μg/mL and Human sEH at 5 μg/mL). Inhibitor dissolved in DMSO at the appropriate concentration. Protocol: In a black 96 well plate, fill all the wells with 150 μL of buffer A. Add 2 μL of DMSO in well A2 and A3, and then add 2 μL of inhibitor solution in A1 and A4 through A12. Add 150 μL of buffer A in a row A, then mix several time and transfer 150 μL to row B. Repeat this operation up to row H. The 150 μL removed from row H go to the trash. Add 20 μL of buffer A in column 1 and 2, then add 20 μL of enzyme solution to column 3 to 12. Incubate the plate for 5 minutes in the plate reader at 30° C. During incubation prepare the working solution of substrate by mixing 3.68 mL of buffer A (4×0.920 mL) with 266 μL (2×133 μL) of substrate solution). At t=0, add 30 μL of working substrate solution with multi-channel pipette labeled “Briggs 303” and start the reading ([S]final: 5 μM). Read with ex: 330 nm (20 nm) and em: 465 nm (20 nm) every 30 second for 10 minutes. The velocities are used to analyze and calculate the IC50s.

As for `CN1CCN(C(=O)c2ccc(NC(=O)Nc3ccc(C(F)(F)F)cc3)cc2F)CC1` [Compound 30, 1-[3-Fluoro-4-(4-methyl-piperazine-1-carbonyl)-phenyl]-3-(4-trifluoromethyl-phenyl)-urea], in series [1] (Conc of I 50 nM), the “% I” value came to 88%. On to `CN1CCN(C(=O)c2ccc(NC(=O)Nc3ccc(F)cc3)cc2)CC1` [Compound 24, 1-(4-Fluoro-phenyl)-3-[4-(4-methyl-piperazine-1-carbonyl)-phenyl]-urea], for which the “% I” value in series [1] (Conc of I 500 nM) is reported as 64%. In the case of `O=C(Nc1ccc(C(F)(F)F)cc1)Nc1ccc(C(=O)N2CCOCC2)c(F)c1` [Compound 22, 1-[3-Fluoro-4-(morpholine-4-carbonyl)-phenyl]-3-(4-trifluoromethyl-phenyl)-urea], in series [1] (Conc of I 50 nM), the “% I” value amounted to 97%. In the case of `CN(CCN1CCOCC1)C(=O)c1ccc(NC(=O)Nc2ccc(C(F)(F)F)cc2)cc1` [Compound 41, N-Methyl-N-(2-morpholin-4-yl-ethyl)-4-[3-(4-trifluoromethyl-phenyl)-ureido]-benzamide], the “% I” value in series [1] (Conc of I 50 nM) was found to be 93%. For `CN(CC(=O)O)C(=O)c1cccc(NC(=O)NC23CC4CC(CC(C4)C2)C3)c1` [Compound 7, {[3-(3-Adamantan-1-yl-ureido)-benzoyl]-methyl-amino}-acetic acid], the “% I” value in series [1] (Conc of I 5000 nM) stood at 90%. In general, melting point refers to the temperature of the solid-liquid transition. Regarding `CN(C)CCN(C)C(=O)c1cccc(NC(=O)NC23CC4CC(CC(C4)C2)C3)c1` [Compound 38, 3-(3-Adamantan-1-yl-ureido)-N-(2-dimethylamino-ethyl)-N-methyl-benzamide], the melting point is 89 to 94 °C. In addition, the “% I” value in series [1] (Conc of I 500 nM) was determined as 81%. Take `O=C(Nc1ccc(Cl)cc1)Nc1cccc(C(=O)N2CCOCC2)c1` [Compound 3, 1-(4-Chloro-phenyl)-3-[3-(morpholine-4-carbonyl)-phenyl]-urea]: the “% I” value in series [1] (Conc of I 500 nM) amounted to 88%. Turning to `CC(C)N1CCN(C(=O)c2ccc(NC(=O)Nc3ccc(OC(F)(F)F)cc3)cc2)CC1` [Compound 32, 1-[4-(4-Isopropyl-piperazine-1-carbonyl)-phenyl]-3-(4-trifluoromethoxy-phenyl)-urea], the “% I” value in series [1] (Conc of I 50 nM) turned out to be 92%. As to `CN(CC(=O)N1CCOCC1)C(=O)c1ccc(NC(=O)Nc2ccc(C(F)(F)F)cc2)cc1` [Compound 39, N-Methyl-N-(2-morpholin-4-yl-2-oxo-ethyl)-4-[3-(4-trifluoromethyl-phenyl)-ureido]-benzamide], the melting point is 226 to 233 °C. For the same compound, in series [1] (Conc of I 500 nM), the “% I” value is 86%.

Consider `CN1CCN(C(=O)c2cc(NC(=O)Nc3ccc(C(F)(F)F)cc3)ccc2F)CC1` [Compound 33, 1-[4-Fluoro-3-(4-methyl-piperazine-1-carbonyl)-phenyl]-3-(4-trifluoromethyl-phenyl)-urea], for which, in series [1] (Conc of I 500 nM), the “% I” value stood at 95%. In the case of `COCCN1CCN(C(=O)c2ccc(NC(=O)Nc3ccc(OC(F)(F)F)cc3)cc2)CC1` [Compound 28, 1-{4-[4-(2-Methoxy-ethyl)-piperazine-1-carbonyl]-phenyl}-3-(4-trifluoromethoxy-phenyl)-urea], the melting point fell in the range of 235 to 240 °C. In series [1] (Conc of I 50 nM), the “% I” value was determined as 91%. As for `O=C(Nc1ccc(C(F)(F)F)cc1)Nc1cccc(C(=O)N2CCC(C(=O)O)CC2)c1` [Compound 29, 1-{3-[3-(4-Trifluoromethyl-phenyl)-ureido]-benzoyl}-piperidine-4-carboxylic acid], the melting point lay within 193 to 197 °C. In series [1] (Conc of I 500 nM), the “% I” value is 94%. `O=C(Nc1ccc(Cl)cc1)Nc1ccc(C(=O)N2CCOCC2)cc1` [Compound 2, 1-(4-Chloro-phenyl)-3-[4-(morpholine-4-carbonyl)-phenyl]-urea]: the “% I” value in series [1] (Conc of I 500 nM) was determined as 94%. The compound `O=C(Nc1ccc(Cl)cc1)Nc1ccc(C(=O)N2CCC(C(=O)O)CC2)cc1` [Compound 9, 1-{4-[3-(4-Chloro-phenyl)-ureido]-benzoyl}-piperidine-4-carboxylic acid] registered a melting point of 238 to 241 °C. Moreover, the “% I” value in series [1] (Conc of I 500 nM) was 64%. As for `COCCN1CCN(C(=O)c2ccc(NC(=O)Nc3ccc(F)cc3)cc2)CC1` [Compound 25, 1-(4-Fluoro-phenyl)-3-{4-[4-(2-methoxy-ethyl)-piperazine-1-carbonyl]-phenyl}-urea], the melting point lay in the range of 248 to 250 °C. In addition, in series [1] (Conc of I 500 nM), the “% I” value is 77%. Regarding `O=C(Nc1ccc(Cl)cc1)Nc1cccc(C(=O)N2CCC(N3CCOCC3)CC2)c1` [Compound 10, 1-(4-Chloro-phenyl)-3-[3-(4-morpholin-4-yl-piperidine-1-carbonyl)-phenyl]-urea], the “% I” value in series [1] (Conc of I 500 nM) was 87%. The same measure, in the same setting: to `CN1CCN(C(=O)c2cccc(NC(=O)Nc3ccc(C(F)(F)F)cc3)c2)CC1` [Compound 19, 1-[3-(4-Methyl-piperazine-1-carbonyl)-phenyl]-3-(4-trifluoromethyl-phenyl)-urea] belongs 94%. Regarding `O=C(Nc1ccccc1)Nc1ccc(C(=O)N2CCOCC2)cc1` [Compound 1, 1-[4-(Morpholine-4-carbonyl)-phenyl]-3-phenyl-urea], in series [1] (Conc of I 5000 nM), the “% I” value stood at 97%. Same read-out and setting: to `CN(CC(=O)O)C(=O)c1ccc(NC(=O)NC23CC4CC(CC(C4)C2)C3)cc1` [Compound 6, {[4-(3-Adamantan-1-yl-ureido)-benzoyl]-methyl-amino}-acetic acid] belongs 93%. Take `CC(C)N1CCN(C(=O)c2cccc(NC(=O)Nc3ccc(C(F)(F)F)cc3)c2)CC1` [Compound 35, 1-[3-(4-Isopropyl-piperazine-1-carbonyl)-phenyl]-3-(4-trifluoromethyl-phenyl)-urea]: the “% I” value in series [1] (Conc of I 500 nM) is 92%. For the compound `CN1CCN(C(=O)c2ccc(NC(=O)Nc3ccc(C(F)(F)F)cc3)cc2)CC1` [Compound 18, 1-[4-(4-Methyl-piperazine-1-carbonyl)-phenyl]-3-(4-trifluoromethyl-phenyl)-urea], in series [1] (Conc of I 50 nM), the “% I” value was found to be 75%. Take `O=C(Nc1ccc(Cl)cc1)Nc1ccc(C(=O)N2CCC(N3CCOCC3)CC2)cc1` [Compound 8, 1-(4-Chloro-phenyl)-3-[4-(4-morpholin-4-yl-piperidine-1-carbonyl)-phenyl]-urea]: the “% I” value in series [1] (Conc of I 5000 nM) is reported as 96%. With `CN1CCN(C(=O)c2ccc(NC(=O)Nc3ccc(OC(F)(F)F)cc3)cc2)CC1` [Compound 27, 1-[4-(4-Methyl-piperazine-1-carbonyl)-phenyl]-3-(4-trifluoromethoxy-phenyl)-urea], the “% I” value in series [1] (Conc of I 50 nM) is recorded as 84%.

Compound `O=C(NC1CCCCC1)NC1CCC(C(=O)N2CCOCC2)CC1` (stereo not shown) [Compound 40, 1-Cyclohexyl-3-[4-(morpholine-4-carbonyl)-cyclohexyl]-urea] yielded a melting point of 159 to 163 °C. The “% I” value in series [1] (Conc of I 500 nM) was 92%. Take `O=C(Nc1cccc(C(=O)N2CCC(C(=O)O)CC2)c1)NC12CC3CC(CC(C3)C1)C2` [Compound 13, 1-[3-(3-Adamantan-1-yl-ureido)-benzoyl]-piperidine-4-carboxylic acid]: in series [1] (Conc of I 5000 nM), the “% I” value was found to be 99%. As for `O=C(Nc1ccc(C(=O)N2CCOCC2)cc1)Nc1ccc(C(F)(F)F)cc1` [Compound 17, 1-[4-(Morpholine-4-carbonyl)-phenyl]-3-(4-trifluoromethyl-phenyl)-urea], the “% I” value in series [1] (Conc of I 50 nM) stood at 89%. On the same count and under the same terms, to `O=C(Nc1ccc(OC(F)(F)F)cc1)Nc1ccc(C(=O)N2CCOCC2)cc1` [Compound 26, 1-[4-(Morpholine-4-carbonyl)-phenyl]-3-(4-trifluoromethoxy-phenyl)-urea] belongs 88%; to `O=C(Nc1ccc(C(F)(F)F)cc1)Nc1ccc(F)c(C(=O)N2CCOCC2)c1` [Compound 16, 1-[4-Fluoro-3-(morpholine-4-carbonyl)-phenyl]-3-(4-trifluoromethyl-phenyl)-urea], 87%. As for `O=C(NC1CCC(C(=O)N2CCC(C(=O)O)CC2)CC1)NC12CC3CC(CC(C3)C1)C2` (stereo not shown) [Compound 21, 1-[4-(3-Adamantan-1-yl-ureido)-cyclohexanecarbonyl]-piperidine-4-carboxylic acid], the “% I” value in series [1] (Conc of I 500 nM) came to 76%. As for `O=C(Nc1ccc(C(F)(F)F)cc1)Nc1cccc(C(=O)N2CCOCC2)c1` [Compound 15, 1-[3-(Morpholine-4-carbonyl)-phenyl]-3-(4-trifluoromethyl-phenyl)-urea], the “% I” value in series [1] (Conc of I 500 nM) was 99%.

In the case of `O=C(Nc1ccc(Cl)cc1)Nc1ccc(C(=O)N2CCOCC2)c(F)c1` [Compound 14, 1-(4-Chloro-phenyl)-3-[3-fluoro-4-(morpholine-4-carbonyl)-phenyl]-urea], the “% I” value in series [1] (Conc of I 50 nM) is given as 74%.

For `CC(C)N1CCN(C(=O)c2ccc(NC(=O)Nc3ccc(C(F)(F)F)cc3)cc2)CC1` [Compound 34, 1-[4-(4-Isopropyl-piperazine-1-carbonyl)-phenyl]-3-(4-trifluoromethyl-phenyl)-urea], the “% I” value in series [1] (Conc of I 50 nM) is 93%. In the case of `O=C(Nc1ccc(F)cc1)Nc1ccc(C(=O)N2CCOCC2)cc1` [Compound 23, 1-(4-Fluoro-phenyl)-3-[4-(morpholine-4-carbonyl)-phenyl]-urea], the “% I” value in series [1] (Conc of I 500 nM) stood at 69%.
